The MIC is the smallest concentration in the dilution series that meets the test's criterion for growth inhibition.

The structures appear in SMILES notation. In brackets after ≈: the same amount, converted by molar mass. Counter-ions that a name gives are not always drawn.

The test system of the first experiment is E. coli NCTC 10418. The experiment can be described thus: MIC against E. coli NCTC 10418. Particulars: Escherichia coli, NCTC 10418 / NCTC 1048; E. coli NCTC 1048 as printed in Example 7; read-out: MIC against E. coli NCTC 1048. The class given is cell-based.
As for `CCn1c(C)c(C(=O)N[C@@H](C(=O)N[C@@H]2C(=O)N3[C@@H]2SC(C)(C)[C@@H]3C(=O)O)c2ccccc2)c(=O)n1-c1ccc(N)cc1` [Example 7, 6β-[D2,-(2-Ethyl-3-methyl-1-(4-aminophenyl)-3-pyrazolin-5-one-4-carbonylamino)-2-phenyl]acetamido penicillanic acid (sodium salt)], the MIC turned out to be 50 µg/mL.

Staying with this experiment, now noted: Escherichia coli, NCTC10418; E. coli NCTC 10418; unit as printed in Example 1; read-out: MIC against E. coli NCTC 10418.
On to `Cc1c(C(=O)N[C@@H](C(=O)N[C@@H]2C(=O)N3[C@@H]2SC(C)(C)[C@@H]3C(=O)O)c2ccccc2)c(=O)n(-c2ccccc2)n1C` [Example 1, 6β-[D,2-(2,3-dimethyl-1-phenyl-3-pyrazolin-5-one-4-carbonylamino)-2-phenyl]acetamido penicillanic acid, sodium salt], for which the MIC was determined as 5 µg/mL.

Still in this experiment, the particulars now being: Escherichia coli, NCTC10418; read-out: MIC against E. coli NCTC 10418.
Take `COc1nn(-c2ccc(N)cc2)cc1C(=O)N[C@@H](C(=O)N[C@@H]1C(=O)N2[C@@H]1SC(C)(C)[C@@H]2C(=O)O)c1ccccc1` [Example 22, 6β-[D,2-([1H]-1-(4-Aminophenyl)-3-methoxypyrazole-4-carbonylamino)-2-phenyl]acetamido penicillanic acid, sodium salt]: the MIC was 16 µg/mL.

`COc1ccc(-n2cc(C(=O)N[C@@H](C(=O)N[C@@H]3C(=O)N4[C@@H]3SC(C)(C)[C@@H]4C(=O)O)c3ccccc3)c(=O)[nH]2)cc1` [Example 20, 6β-[D,2-(2-[4-Methoxyphenyl]-pyrazol-3-in-5-one-4-carbonylamino)-2-phenyl]acetamido penicillanic acid, sodium salt]: the MIC came out at 0.25 µg/mL. For `CC1(C)S[C@@H]2[C@H](NC(=O)[C@H](NC(=O)c3cn(-c4ccc(N)cc4)[nH]c3=O)c3ccccc3)C(=O)N2[C@H]1C(=O)O` [Example 12, 6β-[D,2-(2-(4-Aminophenyl)-3-pyrazolin-5-one-4-carbonylamino)-2-phenyl] acetamido penicillanic acid (sodium salt)], the MIC was determined as 5 µg/mL. Take `Cc1c(C(=O)N[C@@H](C(=O)N[C@@H]2C(=O)N3[C@@H]2SC(C)(C)[C@@H]3C(=O)O)c2ccccc2)c(=O)n(-c2ccc(Br)cc2)n1C` [Example 10, 6β-[D,2-(2,3-Dimethyl-1-(4-bromophenyl)-3-pyrazolin-5-one-4-carbonylamino)-2-phenyl]acetamido penicillanic acid (sodium salt)]: the MIC came to 5 µg/mL. The same measure, in the same setting: under `Cn1cc(C(=O)N[C@@H](C(=O)N[C@@H]2C(=O)N3[C@@H]2SC(C)(C)[C@@H]3C(=O)O)c2ccccc2)c(=O)n1-c1ccccc1` [Example 8, 6β-[D,2-(2-Methyl-1-phenyl-3-pyrazolin-5-one-4-carbonylamino)-2-phenyl]acetamido penicillanic acid (sodium salt)] stands 10 µg/mL; under `Cc1c(C(=O)N[C@@H](C(=O)N[C@@H]2C(=O)N3[C@@H]2SC(C)(C)[C@@H]3C(=O)O)c2ccccc2)c(=O)[nH]n1-c1ccccc1` [Example 16, 6β-[D,2-(3-Methyl-2-phenyl-3-pyrazolin-5-one-4-carbonyl-amino)-2-phenyl]acetamido penicillanic acid, sodium salt], 25 µg/mL; under `CC1(C)S[C@@H]2[C@H](NC(=O)[C@H](NC(=O)c3cn(-c4ccc(O)cc4)[nH]c3=O)c3ccccc3)C(=O)N2[C@H]1C(=O)O` [Example 15, 6β-[D,2-(2-(4-Hydroxyphenyl)-3-pyrazolin-5-one-4-carbonylamino)-2-phenyl] acetamido penicillanic acid (sodium salt)], 2 µg/mL. Still for that read-out and setting: under `Cc1ccc(-n2cc(C(=O)N[C@@H](C(=O)N[C@@H]3C(=O)N4[C@@H]3SC(C)(C)[C@@H]4C(=O)O)c3ccccc3)c(=O)[nH]2)cc1` [Example 23, 6β-[D,2-(2-[4-Methylphenyl]pyrazol-3-in-5-one-4-carbonylamino)-2-phenyl] acetamido penicillanic acid, sodium salt] stands 10 µg/mL; under `CC1(C)S[C@@H]2[C@H](NC(=O)[C@H](NC(=O)c3cn(-c4ccc([N+](=O)[O-])cc4)[nH]c3=O)c3ccccc3)C(=O)N2[C@H]1C(=O)O` [Example 11, 6β-[D,2-(2-(4-Nitrophenyl)-3-pyrazolin-5-one-4-carbonylamino)-2-phenyl] acetamido penicillanic acid (sodium salt)], 2.5 µg/mL.

With `COc1nn(-c2ccc([N+](=O)[O-])cc2)cc1C(=O)N[C@@H](C(=O)N[C@@H]1C(=O)N2[C@@H]1SC(C)(C)[C@@H]2C(=O)O)c1ccccc1` [Example 21, 6-β-[D,2-([1H]-3-Methoxy-1-[4-nitrophenyl]pyrazole-4-carbonylamino)-2-phenyl]acetamido penicillanic acid, sodium salt], the MIC is 8 µg/mL. Still for that read-out and setting: under `COc1c(C(=O)N[C@@H](C(=O)N[C@@H]2C(=O)N3[C@@H]2SC(C)(C)[C@@H]3C(=O)O)c2ccccc2)cnn1-c1ccccc1` [Example 5, 6β-[D,2-(2H,3-Methoxy-2-phenyl-pyrazole-4-carbonylamino)-2-phenyl]acetamido penicillanic acid, sodium salt] stands 12.5 µg/mL; under `CC1(C)S[C@@H]2[C@H](NC(=O)[C@H](NC(=O)c3cn(-c4ccc(N)cc4)[nH]c3=O)c3ccc(O)cc3)C(=O)N2[C@H]1C(=O)O` [Example 14, 6β-[D,2-(2-(4-Aminophenyl)-3-pyrazolin-5-one-4-carbonylamino)-2-(4-hydroxyphenyl)] acetamido penicillanic acid (sodium salt)], 2.5 µg/mL. On to `CC(=O)OCC1=C(C(=O)O)N2C(=O)[C@@H](NC(=O)[C@H](NC(=O)c3cn(-c4ccc(N)cc4)[nH]c3=O)c3ccccc3)[C@H]2SC1` [Example 19, 7β-[D,2-(2-p-Aminophenyl-3-pyrazolin-5-one-4-carbonylamino)-2-phenyl]acetamido-3-acetoxymethylceph-3-em-4-carboxylic acid, sodium salt], for which the minimum inhibitory concentration (MIC) amounted to 5 µg/mL. In the case of `CCn1c(C)c(C(=O)N[C@@H](C(=O)N[C@@H]2C(=O)N3[C@@H]2SC(C)(C)[C@@H]3C(=O)O)c2ccccc2)c(=O)n1-c1ccc([N+](=O)[O-])cc1` [Example 6, 6β-[D,2-(2-Ethyl-3-methyl-1-(4-nitrophenyl)-3-pyrazolin-5-one-4-carbonylamino)-2-phenyl]acetamido penicillanic acid], the MIC came out at 25 µg/mL (≈ 40.2 µM). Same read-out and setting: the figure for `CC1(C)S[C@@H]2[C@H](NC(=O)[C@H](NC(=O)c3cn(-c4ccc([N+](=O)[O-])cc4)[nH]c3=O)c3ccc(O)cc3)C(=O)N2[C@H]1C(=O)O` [Example 13, 6β-[D,2-(2-(4-Nitrophenyl)-3-pyrazolin-5-one-4-carbonylamino)-2-(4-hydroxyphenyl)] acetamido penicillanic acid (sodium salt)] is 5 µg/mL. With `CC1(C)S[C@@H]2[C@H](NC(=O)[C@H](NC(=O)c3cn(-c4ccc(Br)cc4)[nH]c3=O)c3ccccc3)C(=O)N2[C@H]1C(=O)O` [Example 17, 6β-[D,2-(2-p-Bromophenyl-3-pyrazolin-5-one-4-carbonylamino)-2-phenyl]acetamido penicillanic acid, sodium salt], the minimum inhibitory concentration (MIC) worked out at 1 µg/mL. On the same count and under the same terms, under `CC1(C)S[C@@H]2[C@H](NC(=O)[C@H](NC(=O)c3cn(-c4ccccc4)[nH]c3=O)c3ccccc3)C(=O)N2[C@H]1C(=O)O` [Example 3, 6β-[D,2-(2-phenyl-3-pyrazolin-5-one-4-carbonylamino)-2-phenyl]acetamido penicillanic acid, sodium salt] stands 2.5 µg/mL; under `CC(=O)OCC1=C(C(=O)O)N2C(=O)[C@@H](NC(=O)[C@H](NC(=O)c3cn(-c4ccc([N+](=O)[O-])cc4)[nH]c3=O)c3ccccc3)[C@H]2SC1` [Example 18, 7β-[D,2-(2-p-Nitrophenyl-3-pyrazolin-5-one-4-carbonyl-amino)-2-phenyl]acetamido-3-acetoxymethylceph-3-em-4-carboxylic acid, sodium salt], 1 µg/mL.

For the molecule `Cn1cc(C(=O)N[C@@H](C(=O)N[C@@H]2C(=O)N3[C@@H]2SC(C)(C)[C@@H]3C(=O)O)c2ccccc2)c(=O)n1Cc1ccccc1` [Example 9, 6β-[D,2-(1-Benzyl-2-methyl-3-pyrazolin-5-one-4-carbonylamino)-2-phenyl]acetamido penicillanic acid (sodium salt)], the MIC amounted to 5 µg/mL. As to `Cc1c(C(=O)N[C@@H](C(=O)N[C@@H]2C(=O)N3[C@@H]2SC(C)(C)[C@@H]3C(=O)O)c2ccc(O)cc2)c(=O)n(-c2ccccc2)n1C` [Example 2, 6β-[D,2-(2,3-dimethyl-1-phenyl-3-pyrazolin-5-one-4-carbonylamino)-2-(4-hydroxyphenyl)]acetamido penicillanic acid, sodium salt], the MIC worked out at 12.5 µg/mL. On the same count and under the same terms, the figure for `CC1(C)S[C@@H]2[C@H](NC(=O)[C@H](NC(=O)c3cnn(-c4ccccc4)c3O)c3ccccc3)C(=O)N2[C@H]1C(=O)O` [Example 4, 6β-[D,2-(2H,3-Hydroxy-2-phenylpyrazole-4-carbonylamino)-2-phenyl]acetamido penicillanic acid (sodium salt)] is 2 µg/mL.
